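Cells were grown in 96-well plates and exposed to each compound for 48 hours at five concentrations; endpoints were interpolated linearly between bracketing concentrations, or set to the highest concentration if not reached. Here, GI50 denotes the concentration required for 50% inhibition of growth.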 The source made the active and inactive calls. Rule as the data show it: active = GI50 up to about 1.1 µM and inactive = higher.
What was measured:
Assay in all cases: DTP human tumour cell line panel, 48 h
[1] = tested on: HOP-62
[2] = tested on: SR
[3] = tested on: OVCAR-5
[4] = tested on: UACC-257
[5] = tested on: MDA-MB-231
[6] = tested on: MDA-N
[7] = tested on: UO-31
[8] = tested on: SF-268
[9] = tested on: KM12
[10] = tested on: SF-295
[11] = tested on: A549
[12] = tested on: SK-MEL-28
[13] = tested on: M14
[14] = tested on: LOX IMVI
[15] = tested on: HOP-92
[16] = tested on: DU-145
[17] = tested on: HCT-116
[18] = tested on: MOLT-4
[19] = tested on: OVCAR-3
[20] = tested on: HCT-15
[21] = tested on: SN12C
[22] = tested on: OVCAR-4
[23] = tested on: UACC-62
[24] = tested on: T47D
[25] = tested on: A498
[26] = tested on: K562
[27] = tested on: NCI-H23
[28] = tested on: RXF 393
[29] = tested on: SK-OV-3
[30] = tested on: SNB-75
[31] = tested on: HL-60
[32] = tested on: NCI-H522
[33] = tested on: ACHN
[34] = tested on: SW-620
[35] = tested on: SK-MEL-2
[36] = tested on: OVCAR-8
[37] = tested on: MCF7
[38] = tested on: SK-MEL-5
[39] = tested on: NCI-H226
[40] = tested on: NCI/ADR-RES
[41] = tested on: MDA-MB-435
[42] = tested on: Hs-578T
[43] = tested on: HT-29
[44] = tested on: 786-0
[45] = tested on: U-251
[46] = tested on: NCI-H460
[47] = tested on: COLO 205
[48] = tested on: BT-549
[49] = tested on: Malme-3M
[50] = tested on: EKVX
[51] = tested on: HCC 2998
[52] = tested on: CCRF-CEM
[53] = tested on: IGROV-1
[54] = tested on: CAKI-1
[55] = tested on: RPMI-8226
[56] = tested on: SNB-19
[57] = tested on: TK-10
[58] = tested on: PC-3

Measured: GI50

CN(Cc1ccccc1)C(=S)S [SODIUM BENZYL(METHYL)CARBAMODITHIOATE]
34 µM: [20]
inactive: [1] 43.2 µM | [2] 20.6 µM | [3] 35.9 µM | [4] 53.2 µM | [5] 88.5 µM | [6] 70.6 µM | [7] 27.2 µM | [8] 53.3 µM | [9] 56.1 µM | [10] 34 µM | [11] 33.5 µM | [12] 69.2 µM | [13] 23.3 µM | [14] 27.9 µM | [15] 68.2 µM | [16] 53.5 µM | [17] 19.2 µM | [18] 20 µM | [19] 32 µM | [21] 52.4 µM | [22] 28.4 µM | [23] 40.8 µM | [24] 78.7 µM | [25] > 100 µM | [26] 34.1 µM | [27] 45.1 µM | [28] 54.5 µM | [29] > 100 µM | [30] > 100 µM | [31] 26.4 µM | [32] 27.8 µM | [33] 53.5 µM | [34] 51.3 µM | [35] 55.7 µM | [36] 33 µM | [37] 45.5 µM | [38] 48.3 µM | [39] 98.6 µM | [40] 38.1 µM | [41] 43.2 µM | [42] 78.7 µM | [43] 37.5 µM | [44] 19.2 µM | [45] 38 µM | [46] 40.1 µM | [47] 57.3 µM | [48] 77.4 µM | [49] 38.7 µM | [50] 47 µM | [51] > 100 µM | [52] 16.5 µM | [53] 52.2 µM | [54] 37.4 µM

Cc1c2cccc-2c(OCCOC(=O)n2ccnc2)cc2c1[nH]c1ccccc12
inactive: [1] 5.48 µM | [2] 3.31 µM | [3] 2.55 µM | [4] 2.73 µM | [6] 4.8 µM | [7] 1.84 µM | [8] 2.6 µM | [9] 2.14 µM | [10] 2.96 µM | [11] 3.42 µM | [12] 2.02 µM | [13] 3.46 µM | [14] 1.89 µM | [15] 1.7 µM | [16] 6.24 µM | [17] 3.33 µM | [18] 4.12 µM | [19] 1.89 µM | [21] 2.58 µM | [22] 2.32 µM | [23] 2.62 µM | [24] 2.49 µM | [25] 6.52 µM | [26] 4.01 µM | [27] 2.44 µM | [28] 2.57 µM | [29] 4.74 µM | [31] 2.12 µM | [32] 2.14 µM | [33] 2.56 µM | [34] 3.08 µM | [55] 3.48 µM | [35] 1.98 µM | [56] 2.65 µM | [36] 2.18 µM | [37] 3.24 µM | [38] 2.42 µM | [39] 2.39 µM | [40] 2.82 µM | [41] 3.12 µM | [42] 3.55 µM | [57] 3.85 µM | [43] 2.27 µM | [44] 3.87 µM | [46] 3.9 µM | [48] 2.89 µM | [49] 2.79 µM | [51] 2.82 µM | [58] 1.75 µM | [53] 1.77 µM | [54] 3.66 µM
active: [30] 1.04 µM | [50] 1.04 µM
2.2 µM: [20]

O=C1C[C@H](c2ccccc2)C2(C(=O)c3ccccc3C2=O)[C@H](c2ccccc2)C1
inactive: [1] 24.3 µM | [2] > 100 µM | [3] > 100 µM | [5] 9.42 µM | [6] 85.7 µM | [7] > 100 µM | [9] > 100 µM | [10] > 100 µM | [12] > 100 µM | [13] > 100 µM | [15] 32.2 µM | [16] 75 µM | [17] 46.5 µM | [18] 61.2 µM | [19] > 100 µM | [21] > 100 µM | [22] > 100 µM | [23] 79.1 µM | [24] > 100 µM | [25] > 100 µM | [26] > 100 µM | [27] > 100 µM | [28] 12.1 µM | [29] 19.5 µM | [30] 27 µM | [31] > 100 µM | [32] 91 µM | [55] > 100 µM | [35] 16.6 µM | [56] > 100 µM | [36] > 100 µM | [38] 63.1 µM | [39] > 100 µM | [40] > 100 µM | [41] > 100 µM | [42] 29.8 µM | [43] > 100 µM | [45] > 100 µM | [46] > 100 µM | [47] 88.7 µM | [48] 86.9 µM | [49] > 100 µM | [51] > 100 µM | [52] > 100 µM | [58] > 100 µM | [53] 9.08 µM | [54] > 100 µM
> 100 µM: [20]

Reference: ChEMBL document CHEMBL1201862, “PubChem BioAssay data set” (2004)
